Among the data in ChEMBL document CHEMBL5528054, “Novel Cocrystal Structures of Peptide Antagonists Bound to the Human Melanocortin Receptor 4 Unveil Unexplored Grounds for Structure-Based Drug Design” (J Med Chem, 2024) are inhibition, IC50 and Ratio IC50 values, retold here.

Experiment [1] has as its target T1, Melanocyte-stimulating hormone receptor (Homo sapiens, UniProt Q01726). Description: Partial agonist activity at C-terminal HA-tagged human MC1-R stably expressed in HEK293 cells co-expressing GScAMP22P cAMP reporter assessed as inhibition of alpha-MSH induced cAMP production by cell based luminescence assay relative to control. It counts as functional. Conditions: filed as partial agonist, concentration not given here. On the set-up: concentration or dose not given beside the values.
Target sequence in this assay (Q01726 whole entry, looked up): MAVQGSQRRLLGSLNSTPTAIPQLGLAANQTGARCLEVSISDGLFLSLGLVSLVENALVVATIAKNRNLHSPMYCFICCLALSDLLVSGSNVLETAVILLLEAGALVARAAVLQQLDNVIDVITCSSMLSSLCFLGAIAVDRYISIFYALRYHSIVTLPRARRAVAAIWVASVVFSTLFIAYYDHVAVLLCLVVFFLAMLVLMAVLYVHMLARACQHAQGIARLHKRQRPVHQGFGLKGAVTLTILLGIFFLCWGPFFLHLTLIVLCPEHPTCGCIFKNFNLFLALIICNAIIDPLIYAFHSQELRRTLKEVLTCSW

In experiment [2] the target is T1, Melanocyte-stimulating hormone receptor. Description: Partial agonist activity at C-terminal HA-tagged human MC1-R stably expressed in HEK293 cells co-expressing GScAMP22P cAMP reporter assessed as inhibition of alpha-MSH induced cAMP production by cell based luminescence assay. Format: functional.
Target sequence in this assay (Q01726 whole entry): as the sequence (Q01726 whole entry, looked up) above
Experiment [3] deals with HEK293. The experiment can be described thus: Selectivity ratio of IC50 for C-terminal HA-tagged human MC4-R stably expressed in HEK293 cells co-expressing GScAMP22P cAMP reporter assessed as inhibition of alpha-MSH induced cAMP production to IC50 for C-terminal HA-tagged human MC3-R stably expressed in HEK293 cells co-expressing GScAMP22P cAMP reporter assessed as inhibition of alpha-MSH induced cAMP production. It counts as cell-based.

For experiment [4], the system named is HEK293. Description: Selectivity ratio of IC50 for C-terminal HA-tagged human MC4-R stably expressed in HEK293 cells co-expressing GScAMP22P cAMP reporter assessed as inhibition of alpha-MSH induced cAMP production to IC50 for C-terminal HA-tagged human MC1-R stably expressed in HEK293 cells co-expressing GScAMP22P cAMP reporter assessed as inhibition of alpha-MSH induced cAMP production. It counts as cell-based. Background: Cyclic AMP is a second messenger, typically raised through Gs and lowered through Gi signalling.

In experiment [5] the target is Melanocortin receptor 3 (Homo sapiens, UniProt P41968). Description: Antagonist activity at C-terminal HA-tagged human MC3-R stably expressed in HEK293 cells co-expressing GScAMP22P cAMP reporter assessed as inhibition of alpha-MSH induced cAMP production by cell based luminescence assay. Format: functional. Conditions: read-out: IC50.
Chain of Melanocortin receptor 3 (P41968 whole entry): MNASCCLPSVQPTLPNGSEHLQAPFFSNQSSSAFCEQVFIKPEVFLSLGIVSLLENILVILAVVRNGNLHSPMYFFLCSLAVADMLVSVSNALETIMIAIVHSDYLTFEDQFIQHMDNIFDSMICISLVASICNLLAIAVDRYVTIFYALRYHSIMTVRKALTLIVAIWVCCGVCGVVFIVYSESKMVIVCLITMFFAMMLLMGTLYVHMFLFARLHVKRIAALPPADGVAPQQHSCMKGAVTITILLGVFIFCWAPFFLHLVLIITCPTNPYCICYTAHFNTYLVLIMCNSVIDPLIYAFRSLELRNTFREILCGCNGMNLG
Experiment [6] concerns the target Melanocortin receptor 4 (Homo sapiens, UniProt P32245). Description: Antagonist activity at C-terminal HA-tagged human MC4-R stably expressed in HEK293 cells co-expressing GScAMP22P cAMP reporter assessed as inhibition of alpha-MSH induced cAMP production by cell based luminescence assay. It counts as functional. Conditions: hek293; read-out: IC50.

Chain of Melanocortin receptor 4 (P32245 whole entry): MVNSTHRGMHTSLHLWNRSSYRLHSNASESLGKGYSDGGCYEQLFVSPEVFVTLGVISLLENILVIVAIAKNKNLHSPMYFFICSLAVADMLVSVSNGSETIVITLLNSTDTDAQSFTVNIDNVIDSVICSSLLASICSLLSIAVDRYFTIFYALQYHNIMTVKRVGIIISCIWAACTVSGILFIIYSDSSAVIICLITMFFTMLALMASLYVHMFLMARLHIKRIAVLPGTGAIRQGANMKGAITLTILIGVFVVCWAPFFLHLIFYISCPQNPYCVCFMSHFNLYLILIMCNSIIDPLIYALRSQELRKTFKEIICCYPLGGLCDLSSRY

As a reminder, the inhibition is the change of the read-out against control, counted positive when it falls. For orientation: IC50 means the concentration that inhibits the measured activity by half. As for `CCCC[C@H](NC(C)=O)C(=O)N[C@H]1CC(=O)NCCCC[C@@H](C(N)=O)NC(=O)[C@H](CCCCNC(=N)NCCC)NC(=O)[C@H](Cc2c[nH]c3ccccc23)NC(=O)[C@H](CCCNC(=N)N)NC(=O)[C@@H](Cc2ccc3ccccc3c2)NC(=O)[C@@H]2CCCN2C1=O`, the inhibition in experiment [1] was found to be 86.2%. Further, the IC50 in experiment [2] was 75 nM.

With `CCCC[C@H](NC(C)=O)C(=O)N[C@H]1CC(=O)NCCCC[C@@H](C(N)=O)NC(=O)[C@H](CCCCNC(=N)N(CCC)CCC)NC(=O)[C@H](Cc2c[nH]c3ccccc23)NC(=O)[C@H](CCCNC(=N)N)NC(=O)[C@@H](Cc2ccc3ccccc3c2)NC(=O)[C@@H]2CCCN2C1=O`, the inhibition in experiment [1] was found to be 88.7%. In addition, in experiment [2], the IC50 turned out to be 175 nM.

In the case of `CCCCC(NC(C)=O)C(=O)N[C@H]1CC(=O)NCCCC[C@@H](C(N)=O)NC(=O)CNC(=O)[C@H](Cc2c[nH]c3ccccc23)NC(=O)[C@H](CCCNC(=N)N)NC(=O)[C@@H](Cc2ccc3ccccc3c2)NC(=O)[C@@H]2C[C@@H](n3cc(-c4ccccn4)nn3)CN2C1=O` (stereo partly specified), in experiment [1], the inhibition stood at 88.4%. The Ratio IC50 stood at 1.6 in experiment [3] and 53 in experiment [4].

As to `CCCC[C@H](NC(C)=O)C(=O)N[C@H]1CC(=O)NCCCC[C@@H](C(N)=O)NC(=O)CNC(=O)[C@H](Cc2c[nH]c3ccccc23)NC(=O)[C@H](CCCNC(=N)N)NC(=O)[C@@H](Cc2ccc3ccccc3c2)NC(=O)[C@@H]2C[C@H](NC(=O)Cc3ccccc3)CN2C1=O`, in experiment [1], the inhibition came out at 90.1%. Further, the IC50 in experiment [2] was 13.5 nM.

On to `CCCC[C@H](NC(C)=O)C(=O)N[C@H]1CC(=O)NCCCC[C@@H](C(N)=O)NC(=O)[C@H](Cc2c[nH]c3ccccc23)NC(=O)[C@H](CCCNC(=N)N)NC(=O)[C@@H](Cc2ccc3ccccc3c2)NC(=O)[C@H](Cc2c[nH]cn2)NC1=O`, for which the inhibition in experiment [1] was 76%.

For `CCCCCC(=O)N[C@H]1C[C@H]2C(=O)N[C@H](Cc3ccc4ccccc4c3)C(=O)N[C@@H](CCCNC(=N)N)C(=O)N[C@@H](Cc3c[nH]c4ccccc34)C(=O)NCC(=O)N[C@H](C(N)=O)CCCCNC(=O)C[C@H](NC(=O)[C@H](CCCC)NC(C)=O)C(=O)N2C1`, the IC50 in experiment [2] is 10.1 nM.

With `CCCC[C@H](NC(C)=O)C(=O)N[C@H]1CC(=O)NCCCC[C@@H](C(N)=O)NC(=O)CNC(=O)[C@H](Cc2c[nH]c3ccccc23)NC(=O)[C@H](CCCNC(=N)N)NC(=O)[C@@H](Cc2ccc3ccccc3c2)NC(=O)[C@@H]2C[C@H](NC(=O)c3ccccc3)CN2C1=O`, in experiment [1], the inhibition worked out at 90.9%. In experiment [2], the IC50 was determined as 22.5 nM.

For the compound `CCCC[C@H](NC(C)=O)C(=O)N[C@H]1CC(=O)NCCCC[C@@H](C(N)=O)NC(=O)[C@H](CCCCNC(=N)NCc2ccccc2)NC(=O)[C@H](Cc2c[nH]c3ccccc23)NC(=O)[C@H](CCCNC(=N)N)NC(=O)[C@@H](Cc2ccc3ccccc3c2)NC(=O)[C@@H]2CCCN2C1=O`, the inhibition in experiment [1] came to 89.6%. In addition, the IC50 in experiment [2] worked out at 92 nM.

Turning to `CCCC[C@H](NC(C)=O)C(=O)N[C@H]1CC(=O)NCCCC[C@@H](C(N)=O)NC(=O)[C@H](CCCCN)NC(=O)[C@H](Cc2c[nH]c3ccccc23)NC(=O)[C@H](CCCNC(=N)N)NC(=O)[C@@H](Cc2ccc3ccccc3c2)NC(=O)[C@@H]2CCCN2C1=O`, the inhibition in experiment [1] was determined as 81.6%. In experiment [2], the half-inhibitory concentration (IC50) was found to be 158 nM.

For the compound `CCCC[C@H](NC(C)=O)C(=O)N[C@H]1CC(=O)NCCCC[C@@H](C(N)=O)NC(=O)[C@H](CCCCNC(=N)NCCN)NC(=O)[C@H](Cc2c[nH]c3ccccc23)NC(=O)[C@H](CCCNC(=N)N)NC(=O)[C@@H](Cc2ccc3ccccc3c2)NC(=O)[C@@H]2CCCN2C1=O`, the inhibition in experiment [1] came out at 85.3%. For the same compound, the IC50 in experiment [2] was determined as 15.4 nM.

In the case of `CCCC[C@H](NC(C)=O)C(=O)N[C@H]1CC(=O)NCCCC[C@@H](C(N)=O)NC(=O)[C@H](CCCCNC(=N)N)NC(=O)[C@H](Cc2c[nH]c3ccccc23)NC(=O)[C@H](CCCNC(=N)N)NC(=O)[C@@H](Cc2ccc3ccccc3c2)NC(=O)[C@@H]2CCCN2C1=O`, in experiment [1], the inhibition came to 90.6%. In experiment [2], the 50% inhibitory concentration (IC50) worked out at 816 nM.

As to `CCCC[C@H](NC(C)=O)C(=O)N[C@H]1CC(=O)NCCCC[C@@H](C(N)=O)NC(=O)CNC(=O)[C@H](Cc2c[nH]c3ccccc23)NC(=O)[C@H](CCCNC(=N)N)NC(=O)[C@@H](Cc2ccc3ccccc3c2)NC(=O)[C@@H]2C[C@H](n3cc(C4CCCCC4)nn3)CN2C1=O`, the inhibition in experiment [1] stood at 89.5%. The IC50 in experiment [2] stood at 77.4 nM; in experiment [5], 56.8 nM.

With `CC(=O)N[C@H](CCCNC(=N)N)C(=O)N[C@H]1CC(=O)NCCCC[C@@H](C(N)=O)NC(=O)[C@H](CCCNC(=N)N)NC(=O)[C@H](Cc2c[nH]c3ccccc23)NC(=O)[C@H](CCCNC(=N)N)NC(=O)[C@@H](Cc2ccc3ccccc3c2)NC(=O)[C@@H]2CCCN2C1=O`, in experiment [1], the inhibition came to 94.6%. The half-maximal inhibitory concentration (IC50) in experiment [2] worked out at 1240 nM.

As for `CCCC[C@H](NC(C)=O)C(=O)N[C@H]1CC(=O)NCCCC[C@@H](C(N)=O)NC(=O)CNC(=O)[C@H](Cc2c[nH]c3ccccc23)NC(=O)[C@H](CCCNC(=N)N)NC(=O)[C@@H](Cc2ccc3ccccc3c2)NC(=O)[C@@H]2C[C@H](n3cc(CCNC(=N)N)nn3)CN2C1=O`, the inhibition in experiment [1] was 85.9%. In addition, the IC50 in experiment [2] turned out to be 5.09 nM.

As for `CCCC[C@H](NC(C)=O)C(=O)N[C@H]1CC(=O)NCCCC[C@@H](C(N)=O)NC(=O)CNC(=O)[C@H](Cc2c[nH]c3ccccc23)NC(=O)[C@H](CCCNC(=N)N)NC(=O)[C@@H](Cc2ccc3ccccc3c2)NC(=O)[C@@H]2C[C@@H](n3cc(CCCNC(=N)N)nn3)CN2C1=O`, the IC50 in experiment [2] (hek293) came to 0.49 nM; in experiment [5] (hek293) it was 18.8 nM; in experiment [6] it was 3.26 nM.

With `CCCC[C@H](NC(C)=O)C(=O)N[C@H]1CC(=O)NCCCC[C@@H](C(N)=O)NC(=O)[C@H](Cc2ccc(NC(=N)N)cc2)NC(=O)[C@H](Cc2c[nH]c3ccccc23)NC(=O)[C@H](CCCNC(=N)N)NC(=O)[C@@H](Cc2ccc3ccccc3c2)NC(=O)[C@@H]2CCCN2C1=O`, the inhibition in experiment [1] was found to be 88.6%. In addition, the IC50 in experiment [2] worked out at 90 nM.

For the compound `CCCC[C@H](NC(C)=O)C(=O)N[C@H]1CC(=O)NCCCC[C@@H](C(N)=O)NC(=O)CNC(=O)[C@H](Cc2c[nH]c3ccccc23)NC(=O)[C@H](CCCNC(=N)N)NC(=O)[C@@H](Cc2ccc3ccccc3c2)NC(=O)[C@@H]2C[C@H](NC(=O)CCNC(=N)N)CN2C1=O`, in experiment [1], the inhibition was 78.6%. Besides, in experiment [2], the concentration for half-maximal inhibition (IC50) came to 0.12 nM.

For `CCCC[C@H](NC(C)=O)C(=O)N[C@H]1CC(=O)NCCCC[C@@H](C(N)=O)NC(=O)[C@H](CCCCNC(=N)NCCC(=O)O)NC(=O)[C@H](Cc2c[nH]c3ccccc23)NC(=O)[C@H](CCCNC(=N)N)NC(=O)[C@@H](Cc2ccc3ccccc3c2)NC(=O)[C@@H]2CCCN2C1=O`, the inhibition in experiment [1] is 83.2%. Also, in experiment [2], the IC50 was 608 nM.

Regarding `CCCC[C@H](NC(C)=O)C(=O)N[C@H]1CC(=O)NCCCC[C@@H](C(N)=O)NC(=O)CNC(=O)[C@H](Cc2c[nH]c3ccccc23)NC(=O)[C@H](CCCNC(=N)N)NC(=O)[C@@H](Cc2ccc3ccccc3c2)NC(=O)[C@@H]2C[C@@H](NC(=O)CCNC(=N)N)CN2C1=O`, the inhibition in experiment [1] stood at 76.4%. Further, in experiment [2], the 50% inhibitory concentration (IC50) amounted to 0.08 nM.

On to `CCCC[C@H](NC(C)=O)C(=O)N[C@H]1CC(=O)NCCCC[C@@H](C(N)=O)NC(=O)[C@H](CCCN)NC(=O)[C@H](Cc2c[nH]c3ccccc23)NC(=O)[C@H](CCCNC(=N)N)NC(=O)[C@@H](Cc2ccc3ccccc3c2)NC(=O)[C@@H]2CCCN2C1=O`, for which the inhibition in experiment [1] worked out at 83.8%. For the same compound, the IC50 in experiment [2] came to 363 nM.

Regarding `CCCC[C@H](NC(C)=O)C(=O)N[C@H]1CC(=O)NCCCC[C@@H](C(N)=O)NC(=O)CNC(=O)[C@H](Cc2c[nH]c3ccccc23)NC(=O)[C@H](CCCNC(=N)N)NC(=O)[C@@H](Cc2ccc3ccccc3c2)NC(=O)[C@@H]2C[C@@H](n3cc(C(C)(C)N)nn3)CN2C1=O`, the IC50 was 1.53 nM in experiment [2] (hek293), 72.4 nM in experiment [5] (hek293) and 4.34 nM in experiment [6].

As to `CCCC[C@H](NC(C)=O)C(=O)N[C@H]1CC(=O)NCCCC[C@@H](C(N)=O)NC(=O)[C@H](CCCNC(N)=O)NC(=O)[C@H](Cc2c[nH]c3ccccc23)NC(=O)[C@H](CCCNC(=N)N)NC(=O)[C@@H](Cc2ccc3ccccc3c2)NC(=O)[C@@H]2CCCN2C1=O`, the inhibition in experiment [1] is 91.2%. Also, the half-inhibitory concentration (IC50) in experiment [2] came out at 575 nM.

`CC(=O)N[C@H](CCCN)C(=O)N[C@H]1CC(=O)NCCCC[C@@H](C(N)=O)NC(=O)[C@H](CCCNC(=N)N)NC(=O)[C@H](Cc2c[nH]c3ccccc23)NC(=O)[C@H](CCCNC(=N)N)NC(=O)[C@@H](Cc2ccc3ccccc3c2)NC(=O)[C@@H]2CCCN2C1=O`: the inhibition in experiment [1] was 73.7%. Moreover, the 50% inhibitory concentration (IC50) in experiment [2] came out at 3060 nM.

As to `CCCC[C@H](NC(C)=O)C(=O)N[C@H]1CC(=O)NCCCC[C@@H](C(N)=O)NC(=O)CNC(=O)[C@H](Cc2c[nH]c3ccccc23)NC(=O)[C@H](CCCNC(=N)N)NC(=O)[C@@H](Cc2ccc3ccccc3c2)NC(=O)[C@@H]2C[C@@H](n3cc(-c4ccccn4)nn3)CN2C1=O`, the IC50 in experiment [2] (hek293) stood at 213 nM; in experiment [5] (hek293), 6.35 nM; in experiment [6], 4.01 nM.
